Measurements reported in US20140094370A1, “FORMULATION COMPONENT” (SYNGENTA LIMITED, priority 2011, published 2014).

What was measured:
[1] = system: Chenopodium album (CHEAL), Abutilon theophrasti (ABUTH), Setaria viridis (SETVI) and Xanthium strumarium (XANST); test: Glasshouse herbicide efficacy test of fomesafen compositions with adjuvant against four weed species; format: in vivo; settings: mean over fomesafen 60 and 120 g/ha, three replicates, four weed species, 2, 7 and 14 days after application; adjuvant 0.5% v/v; 200 liters per hectare
Experimental: (§1) The aromatic ester bis-2-ethylhexyl phthalate was tested as an adjuvant in compositions of fomesafen, in a glasshouse against four weed species. An agrochemical composition was prepared containing 0.5% v/v of the adjuvant in a track sprayer and was applied at a volume of 200 liters per hectare. Fomesafen was applied at a rate of either 60 or 120 grams per hectare. The adjuvant oils were emulsified using a small amount of the surfactant Pluronic® PE 10500, which was present in the composition at a concentration of 0.02% v/v. The weed species and their growth stage at spraying were Chenopodium album (CHEAL; growth stage 14), Abutilon theophrasti (ABUTH; growth stage 12), Setaria viridis (SETVI; growth stage 13), and Xanthium strumarium (XANST; growth stage 12).
Each spray test was replicated three times. The efficacy of the herbicide was assessed visually and expressed as a percentage of the leaf area killed. Samples were assessed at time periods of 2, 7 and 14 days following application. The results shown below in Table 11 are mean averages over the two rates of fomesafen, three replicates, four weed species and the three assessment timings, and are compared to the efficacy of fomesafen without adjuvant and fomesafen with the commercially available adjuvant Turbocharge® (applied at 0.5% v/v).

[2] = system: Polygonum convolvulus (POLCO), Brachiaria platyphylla (BRAPL), Digitaria sanguinalis (DIGSA) and Amaranthus tuberculatus (AMATU); test: Glasshouse herbicide efficacy test of mesotrione compositions with adjuvant against four weed species; format: in vivo
Experimental: as §1, with “mesotrione,” for “fomesafen,”, “Mesotrione” for “Fomesafen”, “at” for “at a rate of”, “Polygonum convolvulus (POLCO;” for “Chenopodium album (CHEAL; growth stage 14), Abutilon theophrasti (ABUTH; growth stage 12), Setaria viridis (SETVI;”, “Brachiaria platyphylla (BRAPL;” for “and Xanthium strumarium (XANST;”, “13)” for “12).”
Digitaria sanguinalis (DIGSA; growth stage 13) and Amaranthus tuberculatus (AMATU; growth stage 13).
Each spray test was replicated three times. The efficacy of the herbicide was assessed visually and expressed as a percentage of the leaf area killed. Samples were assessed at time periods of 7, 14 and 21 days following application. The results shown below in Table 10 are mean averages over the two rates of mesotrione, three replicates, four weed species and the three assessment timings, and are compared to the efficacy of mesotrione in the absence of adjuvant and mesotrione plus the commercial tank mix adjuvant Turbocharge® (applied at 0.5% v/v).

## CS(=O)(=O)NC(=O)c1cc(Oc2ccc(C(F)(F)F)cc2Cl)ccc1[N+](=O)[O-] [Fomesafen]
[1]
  Mean percentage kill (percentage of the leaf area killed), mean across species: 14.3 C %

## CS(=O)(=O)c1ccc(C(=O)C2C(=O)CCCC2=O)c([N+](=O)[O-])c1 [Mesotrione]
[2]; mean over mesotrione 60 and 120 g/ha, three replicates, four weed species, 7, 14 and 21 days after application, adjuvant 0.5% v/v, 200 liters per hectare
  Mean percentage kill (percentage of the leaf area killed), mean across species: 49.6 B %

## CCCCC(CC)COC(=O)c1ccccc1C(=O)OCC(CC)CCCC (stereo not drawn) [bis-2-ethylhexylphthalate, Bis(2-ethylhexyl) phthalate]
[2]; adjuvant 0.5% v/v with mesotrione, versus mesotrione without adjuvant
  Adjuvant effect on efficacy of the herbicide (in words): increases the efficacy of the herbicide mesotrione
